Experimental data taken from US9938278B2, “FXR (NR1H4) modulating compounds” (Gilead Sciences, Inc., priority 2014, dated 2018).

Biological target: T1, human FXR alpha ligand binding domain (Homo sapiens, UniProt Q96RI1)
T1 construct: made in house; host or cells: E. coli BL21 (DE3), vector pDEST15
T1 sequence (Q96RI1 187-472 isoform Q96RI1-2): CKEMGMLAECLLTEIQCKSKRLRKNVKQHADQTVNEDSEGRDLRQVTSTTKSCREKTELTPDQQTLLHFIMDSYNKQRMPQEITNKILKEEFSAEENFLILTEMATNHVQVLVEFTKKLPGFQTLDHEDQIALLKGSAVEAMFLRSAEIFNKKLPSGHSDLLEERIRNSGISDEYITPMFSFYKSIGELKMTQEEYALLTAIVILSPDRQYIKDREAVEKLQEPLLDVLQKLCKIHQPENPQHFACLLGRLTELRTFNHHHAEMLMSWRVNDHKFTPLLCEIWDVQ
Assay: FRET Activity Assay (ligand mediated cofactor peptide interaction)
Assay type: biochemical
Conditions: LANCE time-resolved FRET; GST-FXR-LBD with biotinylated SRC-1 peptide (676-700); read-out: agonistic potential EC50
Experimental: Assays FRET Activity Assay Determination of a ligand mediated cofactor peptide interaction to quantify ligand binding to the nuclear receptor FXR was performed as follows: Preparation of human FXR alpha ligand binding domain: The human FXRalpha LBD was expressed in E. coli strain BL21 (DE3) as an N-terminally GST tagged fusion protein. The DNA encoding the FXR ligand binding domain was cloned into vector pDEST15 (Invitrogen). Expression was under control of an IPTG inducible T7 promoter. The amino acid boundaries of the ligand binding domain were amino acids 187-472 of Database entry NM_005123 (RefSeq). Expression and purification of the FXR-LBD: An overnight preculture of a transformed E. coli strain was diluted 1:20 in LB-Ampicillin medium and grown at 30° C. to an optical density of OD600=0.4-0.6. Gene expression was then induced by addition of 0.5 mM IPTG. […] The protein was analysed by SDS-Page.
The method measures the ability of putative ligands to modulate the interaction between the purified bacterial expressed FXR ligand binding domain (LBD) and a synthetic biotinylated peptide based on residues 676-700 of SRC-1 (LCD2, 676-700). […] The ligand binding domain (LBD) of FXR was expressed as fusion protein with GST in BL-21 cells using the vector pDEST15. […] The LANCE signal was detected by a Perkin Elmer VICTOR2VTM Multilabel Counter. […]

SMILES: CC(C)n1nc(C(=O)O)cc1N1CCC(O)(c2ccc(OCc3c(-c4c(Cl)cccc4Cl)noc3C3CC3)cc2Cl)CC1 [Example 1, 5-(4-(2-Chloro-4-((5-cyclopropyl-3-(2,6-dichlorophenyl)isoxazol-4-yl)methoxy)phenyl)-4-hydroxypiperidin-1-yl)-1-isopropyl-1H-pyrazole-3-carboxylic Acid]
- EC50: < 25 nM
